# Experimental data: US6451736B1, “Substituted aromatic thiocarboxylic acid amides and their use as herbicides” (Bayer Aktiengesellschaft, priority 1994, dated 2002)
# Experiments:
# Type in all cases: in vivo
# Chenopodium [1] = experiment: Post-emergence test/greenhouse; details: Table C, after three weeks
# Procedure: (§1) To produce a suitable preparation of active compound, 1 part by weight of active compound is mixed with the stated amount of solvent, the stated amount of emulsifier is added and the concentrate is diluted with water to the desired concentration.
# (§2) Test plants which have a height of 5-15 cm are sprayed with the preparation of active compound in such a way as to apply the particular amounts of active compound desired per unit area. After three weeks, the degree of damage to the plants is rated in % damage in comparison to the development of the untreated control.
# (§3) 0%=no action (like intreated control)
# Wheat [2] = experiment: Post-emergence test/greenhouse; details: Table C, after three weeks
# Procedure: as §1, §2, §3
# Veronica = experiment: Post-emergence test/greenhouse; details: Table C, after three weeks
# Procedure: as §1, §2, §3
# Amaranthus [3] = experiment: Post-emergence test/greenhouse; details: Table C, after three weeks
# Procedure: as §1, §2, §3
# Maize [4] = experiment: Post-emergence test/greenhouse; details: Table C, after three weeks
# Procedure: as §1, §2, §3
# Solanum [5] = experiment: Post-emergence test/greenhouse; details: Table C, after three weeks
# Procedure: as §1, §2, §3
# Abuthilon [6] = experiment: Post-emergence test/greenhouse; details: Table C, after three weeks
# Procedure: as §1, §2, §3
# Chenopodium [7] = experiment: Pre-emergence test/greenhouse; details: after three weeks
# Procedure: as §1
# (§4) Seeds of the test plants are sown in normal soil and, after 24 hours, watered with the preparation of active compound. It is expedient to keep constant the amount of water per unit area. The concentration of the active compound in the preparation is of no importance, only the amount of active compound applied per unit area being decisive. After three weeks, the degree of damage to the plants is rated in % damage in comparison to the development of the untreated control. The figures denote:
# (§5) 0%=no action (like untreated control)
# Barley = experiment: Pre-emergence test/greenhouse; details: Table A, 125 g/ha, after three weeks
# Procedure: as §1, §4, §5
# Wheat [8] = experiment: Pre-emergence test/greenhouse; details: Table B, after three weeks
# Procedure: as §1, §4, §5
# Amaranthus [9] = experiment: Pre-emergence test/greenhouse; details: after three weeks
# Procedure: as §1, §4, §5
# Portulaca = experiment: Pre-emergence test/greenhouse; details: after three weeks
# Procedure: as §1, §4, §5
# Maize [10] = experiment: Pre-emergence test/greenhouse; details: after three weeks
# Procedure: as §1, §4, §5
# Solanum [11] = experiment: Pre-emergence test/greenhouse; details: after three weeks
# Procedure: as §1, §4, §5
# Abuthilon [12] = experiment: Pre-emergence test/greenhouse; details: Table B, after three weeks
# Procedure: as §1, §4, §5
# Matricaria = experiment: Pre-emergence test/greenhouse; details: after three weeks
# Procedure: as §1, §4, §5
smiles,measurement,setting,value
"CCS(=O)(=O)Nc1cc(-n2nc(C(F)F)n(C)c2=S)c(F)cc1C(N)=S [Example 3, 2-(2-fluoro-4-thiocarbamoyl-5-ethylsulphonylaminophenyl)-4-methyl-5-difluoromethyl-2,4-dihydro-3H-1,2,4-triazole-3-thione]","degree of damage, Chenopodium",Chenopodium [1]; 30 g/ha,100%
same,"degree of damage, Wheat",Wheat [2]; 30 g/ha,10%
same,"degree of damage, Veronica",Veronica; 30 g/ha,100%
same,"degree of damage, Amaranthus",Amaranthus [3]; 30 g/ha,100%
same,"degree of damage, Maize",Maize [4]; 30 g/ha,30%
same,"degree of damage, Solanum",Solanum [5]; 30 g/ha,100%
same,"degree of damage, Abuthilon",Abuthilon [6]; 30 g/ha,100%
same,"degree of damage, Chenopodium","Chenopodium [7]; Table A, 125 g/ha",100%
same,"degree of damage, Chenopodium","Chenopodium [7]; Table B, 60 g/ha",100%
same,"degree of damage, Barley",Barley,0%
same,"degree of damage, Wheat",Wheat [8]; 60 g/ha,0%
same,"degree of damage, Amaranthus","Amaranthus [9]; Table A, 125 g/ha",100%
same,"degree of damage, Amaranthus","Amaranthus [9]; Table B, 60 g/ha",100%
same,"degree of damage, Portulaca","Portulaca; Table A, 125 g/ha",100%
same,"degree of damage, Portulaca","Portulaca; Table B, 60 g/ha",100%
same,"degree of damage, Maize","Maize [10]; Table A, 125 g/ha",0%
same,"degree of damage, Maize","Maize [10]; Table B, 60 g/ha",0%
same,"degree of damage, Solanum","Solanum [11]; Table A, 125 g/ha",100%
same,"degree of damage, Solanum","Solanum [11]; Table B, 60 g/ha",100%
same,"degree of damage, Abuthilon",Abuthilon [12]; 60 g/ha,100%
same,"degree of damage, Matricaria","Matricaria; Table A, 125 g/ha",100%
same,"degree of damage, Matricaria","Matricaria; Table B, 60 g/ha",100%
CCOc1cc(N2C(=O)C3CCCCN3C2=O)c(F)cc1C(N)=S (stereo not shown) [Example 47],"degree of damage, Chenopodium",Chenopodium [1]; 8 g/ha,95%
same,"degree of damage, Wheat",Wheat [2]; 8 g/ha,10%
same,"degree of damage, Veronica",Veronica; 8 g/ha,100%
same,"degree of damage, Amaranthus",Amaranthus [3]; 8 g/ha,100%
same,"degree of damage, Maize",Maize [4]; 8 g/ha,10%
same,"degree of damage, Solanum",Solanum [5]; 8 g/ha,100%
same,"degree of damage, Abuthilon",Abuthilon [6]; 8 g/ha,100%
same,"degree of damage, Chenopodium","Chenopodium [7]; Table B, 30 g/ha",100%
same,"degree of damage, Wheat",Wheat [8]; 30 g/ha,0%
same,"degree of damage, Amaranthus","Amaranthus [9]; Table B, 30 g/ha",95%
same,"degree of damage, Portulaca","Portulaca; Table B, 30 g/ha",100%
same,"degree of damage, Maize","Maize [10]; Table B, 30 g/ha",0%
same,"degree of damage, Solanum","Solanum [11]; Table B, 30 g/ha",100%
same,"degree of damage, Abuthilon",Abuthilon [12]; 30 g/ha,100%
same,"degree of damage, Matricaria","Matricaria; Table B, 30 g/ha",100%
CCS(=O)(=O)Nc1cc(-n2c(=O)cc(C(F)(F)F)n(C)c2=S)c(F)cc1C(N)=S [Example 21],"degree of damage, Chenopodium",Chenopodium [1]; 4 g/ha,70%
same,"degree of damage, Wheat",Wheat [2]; 4 g/ha,5%
same,"degree of damage, Veronica",Veronica; 4 g/ha,100%
same,"degree of damage, Amaranthus",Amaranthus [3]; 4 g/ha,100%
same,"degree of damage, Maize",Maize [4]; 4 g/ha,60%
same,"degree of damage, Solanum",Solanum [5]; 4 g/ha,100%
same,"degree of damage, Abuthilon",Abuthilon [6]; 4 g/ha,90%
same,"degree of damage, Chenopodium","Chenopodium [7]; Table B, 60 g/ha",100%
same,"degree of damage, Wheat",Wheat [8]; 60 g/ha,0%
same,"degree of damage, Amaranthus","Amaranthus [9]; Table B, 60 g/ha",100%
same,"degree of damage, Portulaca","Portulaca; Table B, 60 g/ha",100%
same,"degree of damage, Maize","Maize [10]; Table B, 60 g/ha",0%
same,"degree of damage, Solanum","Solanum [11]; Table B, 60 g/ha",100%
same,"degree of damage, Abuthilon",Abuthilon [12]; 60 g/ha,100%
same,"degree of damage, Matricaria","Matricaria; Table B, 60 g/ha",100%
Cn1c(C(F)F)nn(-c2cc(F)c(C(N)=S)cc2F)c1=S [Example 8],"degree of damage, Chenopodium",Chenopodium [1]; 60 g/ha,100%
same,"degree of damage, Wheat",Wheat [2]; 60 g/ha,10%
same,"degree of damage, Veronica",Veronica; 60 g/ha,100%
same,"degree of damage, Amaranthus",Amaranthus [3]; 60 g/ha,100%
same,"degree of damage, Maize",Maize [4]; 60 g/ha,30%
same,"degree of damage, Solanum",Solanum [5]; 60 g/ha,100%
same,"degree of damage, Abuthilon",Abuthilon [6]; 60 g/ha,100%
same,"degree of damage, Chenopodium","Chenopodium [7]; Table B, 60 g/ha",100%
same,"degree of damage, Wheat",Wheat [8]; 60 g/ha,40%
same,"degree of damage, Amaranthus","Amaranthus [9]; Table B, 60 g/ha",100%
same,"degree of damage, Portulaca","Portulaca; Table B, 60 g/ha",95%
same,"degree of damage, Maize","Maize [10]; Table B, 60 g/ha",0%
same,"degree of damage, Solanum","Solanum [11]; Table B, 60 g/ha",100%
same,"degree of damage, Abuthilon",Abuthilon [12]; 60 g/ha,100%
same,"degree of damage, Matricaria","Matricaria; Table B, 60 g/ha",95%
Cn1c(C(F)(F)F)cc(=O)n(-c2cc(NS(C)(=O)=O)c(C(N)=S)cc2F)c1=S [Example 26],"degree of damage, Chenopodium",Chenopodium [1]; 15 g/ha,50%
same,"degree of damage, Wheat",Wheat [2]; 15 g/ha,0%
same,"degree of damage, Veronica",Veronica; 15 g/ha,100%
same,"degree of damage, Amaranthus",Amaranthus [3]; 15 g/ha,90%
same,"degree of damage, Maize",Maize [4]; 15 g/ha,30%
same,"degree of damage, Solanum",Solanum [5]; 15 g/ha,50%
same,"degree of damage, Abuthilon",Abuthilon [6]; 15 g/ha,50%
same,"degree of damage, Chenopodium","Chenopodium [7]; Table B, 60 g/ha",100%
same,"degree of damage, Wheat",Wheat [8]; 60 g/ha,0%
same,"degree of damage, Amaranthus","Amaranthus [9]; Table B, 60 g/ha",80%
same,"degree of damage, Portulaca","Portulaca; Table B, 60 g/ha",100%
same,"degree of damage, Maize","Maize [10]; Table B, 60 g/ha",0%
same,"degree of damage, Solanum","Solanum [11]; Table B, 60 g/ha",90%
same,"degree of damage, Abuthilon",Abuthilon [12]; 60 g/ha,100%
same,"degree of damage, Matricaria","Matricaria; Table B, 60 g/ha",100%
CCOc1cc(-n2nc3n(c2=O)CCCC3)c(F)cc1C(N)=S [Example 12],"degree of damage, Chenopodium",Chenopodium [1]; 8 g/ha,95%
same,"degree of damage, Wheat",Wheat [2]; 8 g/ha,10%
same,"degree of damage, Veronica",Veronica; 8 g/ha,100%
same,"degree of damage, Amaranthus",Amaranthus [3]; 8 g/ha,100%
same,"degree of damage, Maize",Maize [4]; 8 g/ha,30%
same,"degree of damage, Solanum",Solanum [5]; 8 g/ha,100%
same,"degree of damage, Abuthilon",Abuthilon [6]; 8 g/ha,100%
same,"degree of damage, Chenopodium","Chenopodium [7]; Table B, 60 g/ha",100%
same,"degree of damage, Wheat",Wheat [8]; 60 g/ha,20%
same,"degree of damage, Amaranthus","Amaranthus [9]; Table B, 60 g/ha",70%
same,"degree of damage, Portulaca","Portulaca; Table B, 60 g/ha",95%
same,"degree of damage, Maize","Maize [10]; Table B, 60 g/ha",0%
same,"degree of damage, Solanum","Solanum [11]; Table B, 60 g/ha",70%
same,"degree of damage, Abuthilon",Abuthilon [12]; 60 g/ha,70%
same,"degree of damage, Matricaria","Matricaria; Table B, 60 g/ha",95%
CCn1c(C(F)(F)F)nn(-c2cc(N(C)S(=O)(=O)CC)c(C(N)=S)cc2F)c1=O [Example 16],"degree of damage, Chenopodium",Chenopodium [1]; 60 g/ha,100%
same,"degree of damage, Wheat",Wheat [2]; 60 g/ha,20%
same,"degree of damage, Veronica",Veronica; 60 g/ha,100%
same,"degree of damage, Amaranthus",Amaranthus [3]; 60 g/ha,100%
same,"degree of damage, Maize",Maize [4]; 60 g/ha,60%
same,"degree of damage, Solanum",Solanum [5]; 60 g/ha,100%
same,"degree of damage, Abuthilon",Abuthilon [6]; 60 g/ha,95%
same,"degree of damage, Chenopodium","Chenopodium [7]; Table B, 60 g/ha",100%
same,"degree of damage, Wheat",Wheat [8]; 60 g/ha,10%
same,"degree of damage, Amaranthus","Amaranthus [9]; Table B, 60 g/ha",20%
same,"degree of damage, Portulaca","Portulaca; Table B, 60 g/ha",80%
same,"degree of damage, Maize","Maize [10]; Table B, 60 g/ha",0%
same,"degree of damage, Solanum","Solanum [11]; Table B, 60 g/ha",80%
same,"degree of damage, Abuthilon",Abuthilon [12]; 60 g/ha,95%
same,"degree of damage, Matricaria","Matricaria; Table B, 60 g/ha",90%
CCS(=O)(=O)Nc1cc(N2C(=O)C(C)=C(C)C2=O)c(F)cc1C(N)=S [Example 22],"degree of damage, Chenopodium",Chenopodium [1]; 30 g/ha,40%
same,"degree of damage, Wheat",Wheat [2]; 30 g/ha,15%
same,"degree of damage, Veronica",Veronica; 30 g/ha,20%
same,"degree of damage, Amaranthus",Amaranthus [3]; 30 g/ha,100%
same,"degree of damage, Maize",Maize [4]; 30 g/ha,0%
same,"degree of damage, Solanum",Solanum [5]; 30 g/ha,100%
same,"degree of damage, Abuthilon",Abuthilon [6]; 30 g/ha,100%
same,"degree of damage, Chenopodium","Chenopodium [7]; Table B, 250 g/ha",100%
same,"degree of damage, Wheat",Wheat [8]; 250 g/ha,0%
same,"degree of damage, Amaranthus","Amaranthus [9]; Table B, 250 g/ha",100%
same,"degree of damage, Portulaca","Portulaca; Table B, 250 g/ha",95%
same,"degree of damage, Maize","Maize [10]; Table B, 250 g/ha",20%
same,"degree of damage, Solanum","Solanum [11]; Table B, 250 g/ha",100%
same,"degree of damage, Abuthilon",Abuthilon [12]; 250 g/ha,100%
same,"degree of damage, Matricaria","Matricaria; Table B, 250 g/ha",100%
